In brackets after ≈: the same amount, converted by molar mass.
Tests used:
NG108-15 cells = experiment: cells; settings: Homo sapiens, NG108-15, read-out: Half maximal inhibition of cell-cell adhesion
Solubility = type: physicochemical; settings: in water after preparing a solution at 10^−1 M in DMSO
Method: Yield: 50%; off-white solid; recrist. solvt.: EtOH; TLC: Rf=0.43 (EtOAc/EtOH 9/1); RPTLC: Rf=0.43 (AcOH/H2O 8/2); mp=136° C.; IR (ν cm^−1): 1730 (CO); ^1H NMR (DMSO-d6) δ (ppm): 7.79 (s, 2H, ArH), 7.14 (s, 2H, ArH), 4.06-4.02 (m, 2H, CH2), 3.93-3.89 (q, J=7.0 Hz, 2H, CH2), 3.59-3.56 (t, J=7.0 Hz, 1H, CH), 2.80-2.77 (m, 2H, CH2), 1.88 (br, 1H, NH), 1.41-1.39 (t, J=7.0 Hz, 3H, CH3), 1.15-1.12 (t, J=7.0 Hz, 3H, CH3); MS (ESI+) m/z 911.7 [(M+DMSO)^+, 100], 833.7 [(M+H)+, 75]; Anal. Calcd. for C19H19I4NO4: C, 27.40; H, 2.30; N, 1.68. Found: C, 27.54; H, 1.94; N, 1.66. Solubility 10^−3 M in water after preparing a solution at 10^−1 M in DMSO. It is noteworthy that if a suspension of L-T4 is prepared overnight, the yield can be increased.

[1] = Doxorubicin-resistant tumor xenograft in nude mice; settings: CD1 nude, mouse, in vivo
Method: (§1) Strain CD1 nude mice were obtained from Charles River Laboratories (Wilmington, Mass.) at approximately 5-6 weeks of age and weighing approximately 30 g. Animals received s.c. implantation of doxorubicin-resistant MCF7/R cells (10^6 cells in 100 μl). When tumors were approximately 50 mm^3 in size, the animals were pair matched and divided into four groups of five mice as follows: a) vehicle treated controls, b) mice treated with tetrac (30 mg/kg), c) mice treated doxorubicin (2 mg/kg), d) mice treated with the combination of both drugs. A total of three injections (separated by 3 days) were performed. Mice were weighed, checked for clinical signs of drug toxicity and lethality. Tumor measurements were made with a caliper three times weekly for up to 3 weeks and converted to tumor volume by using the formula W×L^2/2. Tumor growth curves were generated.

[2] = system: doxorubicin-resistant MCF7/R cells; experiment: Doxorubicin-resistant tumor xenograft in nude mice; settings: doxorubicin alone 2 mg/kg, three injections
Method: as §1

[3] = system: EC migration toward the extracellular matrix protein vitronectin; experiment: Cellular migration assay toward vitronectin (chemotaxis chamber); type: cell-based; settings: Vitronectin 25 ug in lower chamber alone
Method: These assays were performed using a Neuroprobe 96 well disposable chemotaxis chamber with an 8 μm pore size. This chamber allowed for quantitation of cellular migration towards a gradient of either vitronectin or osteopontin. Cultured cells were removed following a standardized method using EDTA/Trypsin (0.01%/0.025%). Following removal, the cells were washed twice and resuspended (2×10^6/ml) in EBM (Endothelial cell basal media, Clonetics Inc.). Add either vitronectin or osteopontin (33 μl) at 0.0125-100 μg/ml to the lower wells of a disposable chemotaxis chamber, and then assemble using the preframed filter. The cell suspension (45 μl) was added to a polypropylene plate containing 5 μl of test agent at different concentrations and incubated for 10 minutes at 22° C. Add 25 μl of cell/test agent suspension to the upper filter wells then incubate overnight (22 hours at 37° C.) in a humidified cell culture incubator. After the overnight incubation, non-migrated cells and excess media were gently removed using a 12 channel pipette and a cell scraper. The filters were then washed twice in PBS (no Ca^+2 or Mg^+2) and fixed with 1% formaldehyde. Membranes of migrated cells were permeated with Triton X-100 (0.2%) then washed 2-3 times with PBS. […] Chemotaxis was quantitatively determined by fluorescence detection using a Cytofluor II (530 excitation/590 emission).

CCO [ethanol]
IC50 (NG108-15 cells): 5 to 10 mM

CCNC(Cc1cc(I)c(Oc2cc(I)c(O)c(I)c2)c(I)c1)C(=O)OCC (stereo not drawn) [PRIAB20, ethyl-2-(ethylamino)-3-[4-(4-hydroxy-3,5-diiodophenoxy)-3,5-diiodophenyl]propanoate]
solubility (Solubility): 1000 µM (≈ 833 µg/mL)

COc1cccc2c1C(=O)c1c(O)c3c(c(O)c1C2=O)C[C@@](O)(C(=O)CO)C[C@@H]3O[C@H]1C[C@H](N)[C@H](O)[C@H](C)O1 [doxorubicin]
MTD [1]: 2.5 mg/kg | effect on tumor growth [2]: no noticeable effect

CC(C)(C)OC(=O)NC(Cc1cc(I)c(Oc2cc(I)c(O)c(I)c2)c(I)c1)C(=O)O (stereo not drawn) [PRIAB1, 2-[(tert-butoxycarbonyl)amino]-3-[4-(4-hydroxy-3,5-diiodophenoxy)-3,5-diiodophenyl]propanoic acid]
melting point: 212 °C

B1: Vitronectin: extracellular matrix protein used as migration gradient (protein, UniProt P04004 20-478, looked up)
Vitronectin: DQESCKGRCTEGFNVDKKCQCDELCSYYQSCCTDYTAECKPQVTRGDVFTMPEDEYTVYDDGEEKNNATVHEQVGGPSLTSDLQAQSKGNPEQTPVLKPEEEAPAPEVGASKPEGIDSRPETLHPGRPQPPAEEELCSGKPFDAFTDLKNGSLFAFRGQYCYELDEKAVRPGYPKLIRDVWGIEGPIDAAFTRINCQGKTYLFKGSQYWRFEDGVLDPDYPRNISDGFDGIPDNVDAALALPAHSYSGRERVYFFKGKQYWEYQFQHQPSQEECEGSSLSAVFEHFAMMQRDSWEDIFELLFWGRTSAGTRQPQFISRDWHGVPGQVDAAMAGRIYISGMAPRPSLAKKQRFRHRNRKGYRSQRGHSRGRNQNSRRPSRATWLSLFSSEESNLGANNYDDYRMDWLVPATCEPIQSVFFFSGDKYYRVNLRTRRVDTVDPPYPRSIAQYWLGCPAPGHL
Mean EC Migration (Fluorescence Units) + SD [3]: 6,116 ± 185 Fluorescence Units
